Assay results taken from patent US10723716B2, “Alpha-helix mimetics as modulators of Abeta self-assembly” (New York University, priority 2016, dated 2020).
Entries after “also recorded” stand apart in the source; their conditions may differ.

Key:
Aβ40 [1] = molecular target: T1, Aβ40 (Homo sapiens, UniProt P05067); assay: Circular dichroism (CD) spectroscopy of Aβ40; type: biochemical; conditions: Aβ40, equimolar ratio
T1 construct: Cleavage of APP results in several Aβ isoforms; The predominant species are Aβ42 and Aβ40; purchased Anaspec (Fremont, Calif., USA)
T1 sequence (P05067 672-711 limits assumed): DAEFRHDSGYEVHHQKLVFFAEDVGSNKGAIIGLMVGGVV
Procedure: A second set of compounds was identified as potent inhibitors of Aβ aggregation. In contrast to ADH-41, they are negatively charged. […] The absorbance increased gradually from 0 to 6 h indicating an increase in the amount of soluble oligomers of Aβ42. […] A time-dependent increase in the amount of the A11-sensitive Aβ42 oligomeric structures was reflected in the progressive enhancement in the chemiluminescence intensity of the dots, which reached a maximum intensity around 6 h (FIG. 27g). The intensity decreased after 12 h, due to formation of fibers that are not sensitive to the A11 antibody. […] The far UV-CD spectrum of a sample of 20 μM Aβ40 transitioned from that of a random coil to a β-sheet conformation over 24 h (FIG. 27h).
(§1) A freshly prepared stock solution of Aβ42 (500 μM) was diluted to 15 μM in phosphate buffer for CD measurements. The spectra of Aβ42 in the absence and presence of the compounds of the invention were recorded at 0.5 nm intervals from 190 to 260 nm with an averaging time of 10 sec. and an average of three repeats on a Aviv Stopped Flow CD Spectropolarimeter (Model 202SF).

Aβ40 [2] = molecular target: T1, Aβ40; assay: ThT-based kinetic assay of Aβ40 aggregation; type: biochemical; conditions: equimolar ratio
Procedure: Kinetic assays were conducted on a FlexStation 3 Multi-Mode Microplate reader from Molecular Devices (Sunnyvale, Calif., USA). Experiments were conducted in triplicate in a 96-well plate with a final volume of 200 μL per well. Every measurement was an average of 50 readings. The aggregation of an amyloidogenic peptide (Aβ40, Aβ42, or IAPP) was initiated by the addition of the peptide from a stock solution (in DMSO, 0.5-1 mM) to phosphate buffer. The final concentration of each peptide was different based on their aggregation. The stoichiometry of ThT dye for each peptide was 0.5:1 (ThT:peptide). Peptide aggregation was monitored by ThT fluorescence (λex=445 nm and λem=485 nm). The blank sample contained all the components of the peptide samples except the peptide. The sample data were processed by subtracting the fluorescence of the blank sample. The fluorescence intensity data was then normalized by setting the maximum value to 1.
Kinetic assays in the presence of the compounds of the invention were conducted under the same conditions. The small molecules were added from a stock solution (1 mM or 10 mM in DMSO) to keep the final concentration of DMSO less than 1.0% (v/v). […]
Kinetic profiles were processed using Origin (version 9.1). […] Each run was fit independently to extract the t50 (time required to reach 50% of the maximum fluorescence intensity). […]

Aβ40 [3] = molecular target: T1, Aβ40; assay: Seed-catalyzed kinetic assay, Aβ40; type: biochemical; conditions: 20 μM Aβ40, 10% seeds, equimolar ratio
Procedure: Seeds of Aβ40/Aβ42 were prepared by incubating 200 μM of Aβ40/Aβ42 in phosphate buffer at room temperature. The samples were aged for 48 h and the formation of fibers was confirmed by TEM and ThT before storage at −20° C. until use. For the aggregation of Aβ40, 10% (based on the monomeric Aβ40, v/v) seeds were added along with ThT in phosphate buffer to the 96-well plate. The aggregation was initiated by the addition of monomeric Aβ40 followed by gentle mixing. The process was similar in the case of Aβ42 except that the seed concentration was 5% (based on the monomeric Aβ42, v/v).
The seeds were generated by aging 200 μM Aβ peptides for 48 h in phosphate buffer with occasional vortexing. The concentration of seeds was calculated based on the monomeric concentration of Aβ.

Aβ42 [4] = molecular target: T2, Aβ42 (Homo sapiens, UniProt P05067); assay: Circular dichroism (CD) spectroscopy of Aβ42; type: biochemical; conditions: 15 μM Aβ42, equimolar ratio, after 24 h
T2 construct: Cleavage of APP results in several Aβ isoforms; The predominant species are Aβ42 and Aβ40; purchased Anaspec (Fremont, Calif., USA)
T2 sequence (P05067 672-713 limits assumed): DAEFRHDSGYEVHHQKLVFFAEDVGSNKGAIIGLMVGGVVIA
Procedure: as §1

Aβ12-28 = molecular target: T3, Aβ12-28 (Homo sapiens, UniProt P05067); assay: Circular dichroism (CD) spectroscopy of Aβ12-28; type: biochemical; conditions: Aβ12-28, 20% TFE, equimolar ratio
T3 construct: Aβ12-28, a well-characterized subdomain of Aβ42; purchased Anaspec (Fremont, Calif., USA)

Aβ42 [5] = molecular target: T2, Aβ42; assay: Dynamic light scattering of Aβ42 species; type: biochemical
Procedure: The particle size distribution of 5 μM Aβ42 increased from a range of hydrodynamic radii of 40-80 nm to 100-500 nm after incubation for 24 h (FIG. 4a).

[6] = DLS and UV-Vis probe of colloidal aggregation of the compound; type: physicochemical
Procedure: UV-Vis was employed to probe the chemical aggregation of ADH-41 under kinetic assay conditions. The measurements were carried out on a double beam Carry 100 Bio spectrophotometer (Agilent Technologies, Santa Clara, Calif.) controlled by Cary WinUV software (version=3.0).
Dynamic light scattering (DLS) and ultraviolet-visible (UV-Vis) spectroscopy was employed to probe the micelle forming capacity of ADH-41.

Aβ40 [7] = molecular target: T1, Aβ40; assay: Isothermal titration calorimetry (ITC); type: binding
Procedure: ITC experiments were performed in a NANO-ITC (TA instruments, New Castle, Del., USA). […] The heat associated with each injection was calculated by integrating each heat burst curve using NanoAnalyze software (New Castle, Del., USA). […] No parameter was constrained during the fitting. The data were extracted from the best fit after 10,000 iterations.

[8] = molecular target: T4, Nα-amino-terminal fluorescein-labeled Aβ40 (Homo sapiens, UniProt P05067); assay: Fluorescence titration; conditions: 20 mM NaPi, 1% TFE, pH 7.4; read-out: apparent binding affinity (app. Kd)
T4 construct: fluorescein-labeled Aβ40 was purchased from Anaspec (Fremont, Calif., USA); purchased Anaspec (Fremont, Calif., USA)
T4 sequence (P05067 672-711 limits assumed): as the sequence (P05067 672-711 limits assumed) above
Procedure: N^α-amino-terminal fluorescein-labeled Aβ40 was purchased from Anaspec (Fremont, Calif., USA) and used without further purification. To ensure the monomeric state of N^α-amino-terminal fluorescein-labeled Aβ40, the peptide was treated similar to other peptides and stored at −80° C. in the dark until use. Fluorescence measurements were performed on a FlexStation 3 Multi-Mode Microplate reader from Molecular Devices (Sunnyvale, Calif., USA). Fluorescence titrations were conducted in triplicate in a 96-well plate with a final well volume of 200 μL. For fluorescence measurements, the fluorescein dye was excited at 492 nm and the spectra were recorded from 500 nm to 600 nm. […] The plot was fitted using a sigmoidal fit to extract the apparent binding affinity.

Compound | β-sheet formation of Aβ40 (far UV-CD) (Aβ40 [1]) | conformation of Aβ40 (far UV-CD) (Aβ40 [1]; stable after 48 h) | effect on Aβ40 aggregation (ThT) (Aβ40 [2]) | effect on seed-catalyzed Aβ40 fibrillation (Aβ40 [3]) | β-sheet formation of Aβ42 (far UV-CD) (Aβ42 [4]) | conformation of Aβ12-28 (far UV-CD) (Aβ12-28) | hydrodynamic radii of Aβ42 particles (Aβ42 [5]; 5 μM Aβ42, equimolar ratio, 24 h incubation) | change in particle size of Aβ42-ADH-41 complex (Aβ42 [5]; after 3 days) | concentration range over which absorbance is linear ([6]; absorbance at 351 nm, phosphate buffer pH 7.4) | diameter (from volume) of compound particles by DLS ([6]; phosphate buffer (150 mM KCl, 50 mM NaPi, pH 7.4), 20° C.) | Kd (Aβ40 [7]) | Kd [8]
COC(=O)c1ccc(NC(=O)c2ccc(NC(=O)c3ccc(NC(=O)c4ccc([N+](=O)[O-])c(OCC(C)C)n4)c(OCc4ccccc4)n3)c(OCC(=O)O)n2)c(OCC(=O)O)n1 [ADH-31] | no β-sheet formation was observed | adopts an α-helical conformation |  |  |  |  |  |  |  |  |  | 
COC(=O)c1ccc(NC(=O)c2ccc(NC(=O)c3ccc([N+](=O)[O-])c(OCc4ccccc4)n3)c(OCCCN)n2)c(OCCCN)n1 [ADH-41] |  |  | decreased significantly; also recorded: completely arrested | completely arrested | No formation of β-sheet structure | strong α-helical conformation | 50-100 nm | No change | 10 to 100 µM | below 10 nm | 0.7 ± 0.1 µM | 1.4 ± 0.2 µM
